In US11684672B2, “Combinations of copanlisib with anti-PD-1 antibody” (BAYER PHARMA AKTIENGESELLSCHAFT, priority 2017, dated 2023):
Structures can show the parent of a compound that is named as a salt.

Experiments:
[1] = test system: regulatory T cells (Treg); experiment: Analysis of regulatory T cells (Treg) and CD8+ T cells in tumor, spleen and thymus of the A20 model; assay type: in vivo, mouse
Protocol: Sampling procedures: organ and tumor tissues were quickly removed and weighted 3 h post the final dose for FACS, IHC (FFPE), and RNA/pretein expression analysis.
The anti-tumor activity of Compound A and Compound B was assessed firstly in an immune-checkpoint blocker resistant DLBCL syngeneic A20 xenograft mouse model as single agent and in combination. A20 cells were inoculated subcutaneously at the right flank of female BALB/c mice for tumor development. The treatment was started when the average tumor size reached about 116 mm^3. Mice were allocated randomly into experimental groups according to their tumor sizes and being treated from day 12 after tumor cell inoculation. Cpd A was dosed at 14 mg/kg and Cpd B at 200 μg/mouse intravenously with the schedule indicated in FIG. 1 A. Treatment groups were: control antibody (ctrl Ab), vehicle control (vehicle), compound A monotherapy (Cpd. A), Cpd. B monotherapy, 3 combination groups with different dosing schedules. Body weights and tumor size were measured three times per week. Tumor growth curve (FIG. 1B), tumor weight at the end of treatment (FIG. 1C) and tumor response (FIG. 1D) were used as anti-tumor activity endpoints. The tolerability was assessed by body weight change. […]

[2] = test system: A20 diffuse large B cell lymphoma; experiment: Anti-tumor efficacy in A20 DLBCL syngeneic mouse model; assay type: in vivo; conditions: monotherapy; Cpd A 14 mg/kg i.v., Cpd B 200 μg/mouse i.v.; female BALB/c mice; vs vehicle control group
Protocol: (§1) A20 diffuse large B cell lymphoma and CT26 colorectal cancer cells were maintained in vitro in cell cultural medium supplemented with serum (according to the instructions for each corresponding cell lines) at 37° C. in an atmosphere of 5% CO2 in air. The tumor cells were routinely subcultured twice weekly. The cells in an exponential growth phase were harvested and counted for tumor inoculation. To investigate anti-tumor efficacy and mechanisms of action in vivo, each mouse was inoculated subcutaneously at the right lower flank region with tumor cells (1×10^5−2×10^6 depending on the cell lines) in 0.1 ml of PBS with or without metrigel for tumor development. Before commencement of treatment, all animals were weighed and the tumor volumes were measured using a caliper. […]
(§2) Tumor volumes were measured 2-3 times weekly in two dimensions using a caliper, and the volume was expressed in mm^3 using the formula: V=0.5 a×b2 where a and b are the long and short diameters of the tumor, respectively. Tumor weight was measured at study termination. […]
The anti-tumor activity of Compound A and Compound B was assessed firstly in an immune-checkpoint blocker resistant DLBCL syngeneic A20 xenograft mouse model as single agent and in combination. […] Body weights and tumor size were measured three times per week. […] The tolerability was assessed by body weight change. […]

[3] = test system: CT26 (KRAS^mut, non-MSI^high) colorectal cancer; experiment: Anti-tumor efficacy in CT26 colorectal cancer syngeneic mouse model; assay type: in vivo; conditions: monotherapy
Protocol: as §1, §2
Therefore, the anti-tumor activity of Compound A and Compound B was assessed in the mouse syngeneic CT26 (KRAS^mut, non-MSI^high) colorectal cancer xenograft model as single agent and in combination. […]

Compound: COc1c(OCCCN2CCOCC2)ccc2c1N=C(NC(=O)c1cnc(N)nc1)N1CCN=C21 [Cpd A, 2-amino-N-[7-methoxy-8-(3-morpholin-4-ylpropoxy)-2,3-dihydroimidazo[1,2-c]quinazolin-5-yl]pyrimidine-5-carboxamide dihydrochloride]
- effect on Treg in thymus and spleen ([1]; A20 model, thymus and spleen): minimal or no effects
- effect on Treg population in tumors ([1]; A20 tumors, Treg among CD4+ T cells): specifically reduce the Treg population in tumors
- relative tumor growth inhibition (TGI %) [2]: 78%
- TGI [3]: 71%
